Data set [1] relates to Alpha 1 Adrenergic Receptors. Nature of the data set: Rabbit Aorta: Alpha 1 Adrenergic Receptors. The data set is classed as cell-based, albino rabbit. Conditions: rabbit aorta rings, 37° C., field stimulated; n = number of test runs. On the procedure:
The tetrahydroquinoxalines produced in Examples 1 to 3 were tested for activity using the following in vitro methods.
Rabbit Aorta: Alpha 1 Adrenergic Receptors
Thoracic aorta and saphenous vein specimens were obtained from albino rabbits that were killed by CO2 inhalation. The aorta and saphenous vein were each cut into 3 mm rings. Tissues were placed in Krebs-Hensleit solution of the following composition (millimolar): NaCl 119; KCl 4.7; MgSO4 1.5, KH2 PO4 1.2; CaCl2 2.5; NaHCO3 25 and glucose 11.0. The solution also contained cocaine (0.1 millimolar) to block neuronal uptake and EDTA (30 micromolar) and ascorbic acid (5 micromolar) to prevent oxidation of the tetrahydroquinoxaline being tested. Tissues were hung in 10 ml organ baths and tension was measured via Grass FT03 force-displacement transducers. Resting tension was 1 g and 2 g for the saphenous vein and aorta, respectively. The solution was gassed with 95% O2 and 5% CO2 and maintained at 37° C. Tissues were allowed to equilibrate for 2 hours before stimulation and the cumulative addition of the tetrahydroquinoxaline being treated was started. Tissue stimulation was performed as with the rabbit vas deferens, described above. The contractions of the tissue were recorded isometrically as for the rabbit vas deferens assay. Cumulative concentration response curves were obtained and the EC50 valve developed for each tetrahydroquinoxaline tested in a manner similar to that for the rabbit vas deferens assay.

In data set [2] the test system is mean arterial blood pressure. Nature of the data set: blood pressure effects (MAP) in anti-diarrheal test. Conditions: p.o. The data set is classed as in vivo, rats. The procedure: The tetrahydroquinoxaline produced in Example 1 was tested for anti-diarrheal effects and blood pressure effects using the following method.
Cecectomies were performed in unfasted rats as follows. Under anesthesia with methohexital (60 mg/kg. i.p.), a laparotyphlectomy was initiated with a 2 cm midventral incision. The cecum was lifted from the abdominal cavity and exteriorized onto a gauze drape. The cecal apex was freed by severing the avascular area of the mesocecum. Next, a ligature of #1 silk suture was positioned so as to occulude the cecum and its vasculature without compromising ileo-colonic patency. After the ligature was secured and ileo-colonic patency confirmed, the cecum was resected, and the remaining exposed cecal mucosa was washed with saline and cauterized. The intestinal segment was then returned to the abdominal cavity, and the abdominal muscle facia closed with interrupted 4/0 chromic-gut sutures. The dermal incision was closed with 9 mm stainless steel wound clips that were removed approximately 1 week post surgery. An arterial line was also implanted into the abdominal aorta and vena cava via the femoral vessels, in a manner similar to that described in Example 10. Immediately following the surgical procedure, animals were returned to their cages and allowed free access to food and water. Animals were permitted at least 48 hour recovery period before being used in experiments.
The cecectomized rats were put into individual wire-bottomed cages placed over sheets of clean paper, and deprived of food and water for the duration of the assay. The MAP was monitored, as described in Example 10, throughout the assay. Rats were given a 2 hour acclimatization period prior to the start of the assay in order to eliminate sporadic episodes of anxiety-induced defecation. During this period they were observed also for consistent occurrences of pelleted feces; an animal producing other than a pelleted stool was disqualified from the study.
Diarrhea was induced with oral administration of 16,16-dimethyl prostaglandin E2 (dmPGE2) in 3.5% EtOH. The tetrahydro-quinoxaline was administered by gavage after the onset of diarrheal episodes. The cage papers were removed and examined at 30 minute intervals for dmPGE2 -induced diarrhea. Fecal output was recorded at each interval and fecal consistency is assigned a numerical score in each experimental group as follows: 1=normal pelleted stool; 2=soft-formed stools; 3=water stool and/or diarrhea. The fecal output index (FOI) is defined as the summation of the number of defecation episodes and their ranked consistency score within an observation period.

The subject of the next data set is intraocular pressure. Nature of the data set: effect on intraocular pressure, topical unilateral administration to rabbit eye. The data set is classed as in vivo, New Zealand white rabbit. The settings on record: 0.1% (W/V), treated rabbit eye. The procedure:
The three (3) tetrahydroquinoxaline derivatives produced in accordance with Examples 1 to 3 were tested to determine what effect, if any, these materials have on intraocular pressure.
Each of these materials was dissolved in distilled water at a concentration of 0.1% (W/V). Each of these solutions was administered topically and unilaterally to one eye of a drug-naive, unanesthetized New Zealand white rabbit in a single 50 micro liter drop. The contralateral eye received an equal volume of saline prior to determining the intraocular pressure after the mixture was administered. Also, approximately 10 micro liters of 0.5% (W/V) proparacaine (topical anesthetic) was applied to the corneas of each of the rabbits before determining intraocular pressure. As a control test, six (6) other drug-naive, unanesthetized New Zealand white rabbits were treated and tested as described above except that no tetrahydroquinoxaline derivative was included in the solutions administered to the eyes.
The intraocular pressure was determined in both eyes of each rabbit before and after the solutions were administered. Such intraocular pressure determinations were made in the conventional manner using conventional equipment.

For data set [3], the system named is mean arterial blood pressure. Nature of the data set: blood pressure effects (MAP) in renal test, intraduodenal administration. Conditions: test run 3 times. The data set is classed as in vivo, Sprague-Dawley rats. On the procedure:
The tetrahydroquinoxaline produced in Example 1 was tested for renal and blood pressure effects using the following method.
Young male (20-24 weeks old) Sprague-Dawley rats were used. Under ketamine (60 mg/kg b.wt. i.m.) and pentobarbital (i.p. to effect) anesthesia, medical grade plastic tubes were implanted into the abdominal aorta and vena cava via the femoral vessels. In addition, a Silastic-covered stainless steel cannula were sewn in the urinary bladder. After the surgery, the rats were housed individually and were allowed free access to food and water until the day of the experiment.
For about 7 to 10 days before surgery and during recovery, the rats were accustomed to a restraining cage by placement in the cage for 2 to 3 hours every 2nd and 3rd day. The cage was designed for renal clearance studies (a model G Restrainer sold by Braintree Scientific, Inc., Braintree, Mass.). The animals' adjustment to the cage was judged by the stability of blood pressure and heart rate.
For an experiment, a rat was placed in the restraining cage, and the arterial line was connected to a Statham pressure transducer and a Beckman Dynograph R61 to monitor the mean arterial blood pressure, hereinafter referred to as MAP. […] The volume of urine was measured gravimetrically. Body weight was recorded before and after the experiment. […]

Each structure is given as a SMILES string.

Usually EC50 stands for the concentration at which the effect is half-maximal. For `Brc1c(NC2=NCCN2)ccc2c1NCCN2` [Example 1, 5-Bromo-6-(2-imidazolin-2-ylamino)-1,2,3,4-tetrahydroquinoxaline], the EC50 in data set [1] turned out to be 1130 ± 207 nM. Besides, the “Increase in MAP” value in data set [2] (0.01 mg/kg) is on record as 0 mm Hg; in data set [2] (0.03 mg/kg), 0 mm Hg; in data set [2] (0.10 mg/kg) it was 0 mm Hg; in data set [2] (0.30 mg/kg), 0 mm Hg; in data set [2] (1.00 mg/kg) it was 0 mm Hg; in data set [2] (3.00 mg/kg), 10 mm Hg. In addition, the “Increase in MAP” value amounted to 25 mm Hg in data set [2] (10.00 mg/kg), 2.5 mm Hg in data set [3] (0.3 mg/kg) and 8 mm Hg in data set [3] (1 mg/kg). Moreover, the “effect in blood pressure accompanying anti-diarrheal effects (in words)” value in data set [2] (cecectomized rats) is listed as “no or a relatively minimal effect in blood pressure”. For the same compound, in the data set with intraocular pressure, the “effect on intraocular pressure in the treated eye (in words)” value was “effective to reduce intraocular pressure in the treated rabbit eye”. In addition, the “initial effect on intraocular pressure in the treated eye (in words)” value in the data set on intraocular pressure (initial effect) was “raising the intraocular pressure”.

(Values after US5077292A, “(2-imidazolin-2-ylamino) tetrahydroquinoxalines and methods for using same” (priority 1989, dated 1991).)
